In US11136297B2, “Compositions and methods for treating cancer” (THE REGENTS OF THE UNIVERSITY OF CALIFORNIA, priority 2016, dated 2021):

Assays:
[1] = molecular target: T1, 1-181 H-Ras(G12V/M72C/C118S) (Homo sapiens, UniProt P01112, C118S/G12V/M72C); test: Coupling of Compound 3 to H-Ras M72C construct for lipid kinase assays; type: binding; settings: M72C construct with 200-250 Compound 3, 72 hours, 4° C.
T1 construct: Plasmids expressing 1-181 H-Ras(G12V/C118S) and H-Ras(G12V/M72C/C118S); His tag (purified on HisTrap, TEV-cleavable) (cleaved yes); made in house; host or cells: Escherichia coli BL21 DE3
Protocol: Coupling to inhibitor was done in a reaction containing […], 100 mM TCEP, 1 mM MgCl2 and […] Compound 3. DMSO was adjusted to a final concentration of 5%. After 24 hours, more inhibitor was added to a total final concentration of […]. The coupling was allowed to proceed for −72 hours at 4° C. Coupling efficiency was −70%. The coupled protein was exchanged with gel filtration buffer and loaded with GTPgS in the same manner as the H-Ras(G12V) construct. The protein was then run on a Superdex™ 75 10/300 GL size-exclusion column (GE Healthcare) equilibrated in Ras gel filtration buffer to remove excess nucleotide.

[2] = molecular target: T2, p110d/p85a (PI3K-d) activation by H-Ras-GTP (Homo sapiens, UniProt P01112, C118S/G12V/M72C); test: PI3K lipid kinase assay with membrane-coupled H-Ras (Transcreener ADP2 FI); type: biochemical; settings: with pY phosphopeptide; H-Ras(G12V) alone gave 20-fold
T2 construct: Plasmids expressing 1-181 H-Ras(G12V/C118S) and H-Ras(G12V/M72C/C118S); His tag (purified on HisTrap, TEV-cleavable) (cleaved yes); made in house; host or cells: Escherichia coli BL21 DE3 (H-Ras)
Protocol: Purification and Modification of H-Ras Constructs for Lipid Kinase Assays. Plasmids expressing 1-181 H-Ras(G12V/C118S) and H-Ras(G12V/M72C/C118S) were transformed into BL21 DE3 and the culture was induced at OD 0.6-0.9 with […] IPTG. The cultures were then allowed to grow for 4 h at 37° C. after which the cells were pelleted and stored at −80° C. Frozen pellets were re-suspended in lysis buffer and lysed by sonication (10s ON; 10s OFF; Power-6.0). Triton-X was added to a final concentration of 0.1% and lysate was centrifuged at 20,000 g for 45 minutes (Beckman Coulter Avanti J-251, JA 25.50 rotor). The supernatant was loaded on a 5 mL HisTrapTm FF column (GE Healthcare) equilibrated with buffer containing 10 mM imidazole pH 8.0 (NiNTA A). Following washes with 20 mL NiNTA A and 20 mL of 6% buffer containing 200 mM imidazole pH 8.0 (NiNTA B), the protein was eluted in 100% NiNTA B. The elution was buffer exchanged with NiNTA A buffer in a 10,000 MWCO Amicon concentrator (Millipore). The sample was concentrated down to <2 mL and TEV protease was added to −0.3 mg/mL. The cleavage was allowed to proceed overnight at 4° C. To de-enrich the TEV protease, the protein solution was loaded onto a HisTrapTm FF column and eluted with 10 mL of NiNTA A buffer. The elution was concentrated to −2 mL. […]

[3] = molecular target: T3, H-Ras(M72C) bound to either GDP or GppNHp (Homo sapiens, UniProt P01112, M72C); test: Electrophile labeling experiments (percent modification by whole protein LC/MS); type: binding
T3 construct: Labeling studies were conducted using the 1-166 H-Ras(M72C) construct containing all endogenous cysteines; His6; made in house; host or cells: Escherichia coli BL21(DE3)
Protocol: Electrophile Labeling Experiments.
Each reaction was analyzed in a 96 well plate format for analysis by LC/MS. Total reaction volumes were 25 μL for single time point labeling experiments and 200 uL for full 24-hour time courses. 25 μL reactions were made in the wells of a V-bottom 96 well plate and 200 uL reactions were made in 1.25 mL eppendorf tubes. All labeling reactions were conducted in Gel Filtration Buffer (20 mM HEPES (pH 7.5), 150 mM NaCl) with no added reductant at room temperature. […] Electrophile stocks were made in DMSO at 10 mM, aliquoted, and frozen. Labeling reactions were started by the addition of the desired volume of 10 mM electrophile stock and mixed thoroughly by pipette. General screening of new electrophiles was done at 100 μM electrophile in triplicate and sampled as a single time point after 24 hours of incubation. For Compound 3, labeling time courses were conducted at 20 μM compound with sampling done every 2 hours for the first 10 hours of incubation and continued after overnight incubation until the protein was fully modified. Reactions were allowed to sit at room temperature in the dark (either covered in aluminum foil or in a bench drawer) until the desired time point was reached. For 24-hour single point labeling experiments, the reaction was directly sampled from the 96 well plate and analyzed by LC/MS. For experiments with multiple time points, 22.5 μL aliquots of the 200 μL master reaction were sampled and quenched by the addition of 2.5 μL of 2% formic acid (also made in Gel Filtration Buffer). This 25 μL quenched sample was then analyzed by LC/MS and the remaining master reaction was allowed to continue reacting after gentle mixing by pipette. The percent modification was analyzed by electrospray mass spectrometry using a Waters Acquity UPLC/ESI-TQD with a 2.1×50 mm Acquity UPLC BEH300 C4 column.

C=CC(=O)Nc1cc(Cl)cc(NC(=O)c2cnn(-c3ccc(OC)cc3)c2C(F)(F)F)c1 [Compound 3, N-(3-acrylamido-5-chlorophenyl)-1-(4-methoxyphenyl)-5-(trifluoromethyl)-1H-pyrazole-4-carboxamide]
Coupling efficiency [1]: 70% | activation of PI3K-d activity by H-Ras(G12V/M72C) bound to compound [2]: ~3 fold | Percent modification (labeling of Cys 72) ([3]; 4 μM H-Ras(M72C) GDP or GppNHp, 100 μM electrophile, 24 hours): improved covalent binding | labeling of the GDP state ([3]; H-Ras(M72C) GDP, 20 μM electrophile (1:5 Ras to Compound 3), time course): rapidly and fully labels the GDP state | modification of the GppNHp state ([3]; H-Ras(M72C) GppNHp, 20 μM electrophile (1:5 Ras to Compound 3)): 88.7%
